For one assay, the system named is PC3 (prostate). In words: In vitro cytotoxic activity MTT assay, PC3. The assay is classed as cell-based. The note with it: Homo sapiens; cells exposed for 96 hours; read-out: Cytotoxicity activity IC50, PC3 (prostate). How it is done: (§1) Compounds 1-16 were screened for their in vitro cytotoxic activity utilizing a 3-(4,5-dimethyl-thiazol-2-yl)-2,5-diphenyltetrazolium bromide (MTT) assay against selected cancer human cell lines consisting of PC3 (prostate), HCT116 (colon), A375 (melanoma), H1299 (lung), MIAPaCa-2 (pancreas), HL60 (leukemia), MCF7 (breast), MDA-MB-231 (breast) (T. Mosmann, J. Immunol. Meth., 1983, 65, 55-63). The cells were cultured at 37° C. in RMPI1640 medium supplemented with 10% fetal bovine serum, 50 IU/mL penicillin, and 50 μg/mL streptomycin in a 5% CO2 incubator. All cells were sub-cultured 3 times/week by trypsinisation. Viable cells were seeded and allowed to adhere for 12 hours before a test drug was added in 96-well plates at an initial density of 1.0×10^5 cells/mL. Tumor cell lines were separately exposed to various concentrations of the tested compounds followed by incubation at a temperature of 37° C. during 96 hours inside a medium of fresh RMPI 1640. Cells were subsequently incubated at 37° C. using MTT at 0.5 mg/mL during 4 hours. After removal of supernatant, formazan crystals were dissolved in isopropanol and the optical density was measured at 570 nm. CX-4945 was used as a positive control.
A general note: Tetrazolium dyes change colour on reduction, which living cells bring about.

Another assay deals with HCT116 (colon). Description: In vitro cytotoxic activity MTT assay, HCT116. The assay is classed as cell-based. The note with it: Homo sapiens, HCT-116; cells exposed for 96 hours; read-out: Cytotoxicity activity IC50, HCT116 (colon). The protocol:
as §1

A further assay concerns A375 (melanoma). Description: In vitro cytotoxic activity MTT assay, A375. In kind it is cell-based. The note with it: Homo sapiens, A-375; cells exposed for 96 hours; read-out: Cytotoxicity activity IC50, A375 (melanoma). How it is done: as §1
The next assay deals with H1299 (lung). In words: In vitro cytotoxic activity MTT assay, H1299. In kind it is cell-based. The note with it: Homo sapiens, NCI-H1299; cells exposed for 96 hours; read-out: Cytotoxicity activity IC50, H1299 (lung). How it is done:
as §1

The next assay relates to MIAPaCa-2 (pancreas). Description: In vitro cytotoxic activity MTT assay, MIAPaCa-2. In kind it is cell-based. The note with it: Homo sapiens, MIA PaCa-2; cells exposed for 96 hours; read-out: Cytotoxicity activity IC50, MIAPaCa-2 (pancreas). How it is done:
as §1

The subject of another assay is HL60 (leukemia). Description: In vitro cytotoxic activity MTT assay, HL60. The note with it: Homo sapiens, HL-60; cells exposed for 96 hours; read-out: Cytotoxicity activity IC50, HL60 (leukemia). The assay is classed as cell-based. The protocol:
as §1

Another assay deals with MCF7 (breast). In words: In vitro cytotoxic activity MTT assay, MCF7. In kind it is cell-based. The note with it: Homo sapiens, cells exposed for 96 hours, read-out: Cytotoxicity activity IC50, MCF7 (breast). The protocol:
as §1

For another assay, the system named is MDA-MB-231 (breast). Description: In vitro cytotoxic activity MTT assay, MDA-MB-231. The assay is classed as cell-based. The note with it: Homo sapiens, cells exposed for 96 hours, read-out: Cytotoxicity activity IC50, MDA-MB-231 (breast). How it is done: as §1
Assay [1] deals with T1, recombinant human CK2 (RRββ-holoenzyme) (Homo sapiens, UniProt P68400).
T1 construct: purchased Millipore
T1 sequence (P68400 whole entry): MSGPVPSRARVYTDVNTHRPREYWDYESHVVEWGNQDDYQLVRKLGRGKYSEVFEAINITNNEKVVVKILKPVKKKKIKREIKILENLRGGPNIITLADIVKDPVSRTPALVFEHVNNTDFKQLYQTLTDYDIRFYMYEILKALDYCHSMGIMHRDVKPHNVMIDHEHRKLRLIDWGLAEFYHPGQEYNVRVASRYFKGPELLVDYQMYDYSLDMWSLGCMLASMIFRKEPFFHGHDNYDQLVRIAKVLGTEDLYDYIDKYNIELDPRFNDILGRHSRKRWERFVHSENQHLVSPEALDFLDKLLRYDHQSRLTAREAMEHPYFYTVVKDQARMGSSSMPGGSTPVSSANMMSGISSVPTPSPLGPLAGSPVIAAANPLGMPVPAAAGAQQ
T1 sequence (P67870 whole entry partner): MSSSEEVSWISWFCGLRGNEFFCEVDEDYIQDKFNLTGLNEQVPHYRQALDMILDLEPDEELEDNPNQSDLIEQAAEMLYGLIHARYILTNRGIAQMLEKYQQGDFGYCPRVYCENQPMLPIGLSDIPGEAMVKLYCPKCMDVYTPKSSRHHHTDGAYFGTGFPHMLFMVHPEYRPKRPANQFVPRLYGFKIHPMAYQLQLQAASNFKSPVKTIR
Description: CK2 Kinase Assay (33P-ATP, substrate peptide RRRDDDSDDD). The note with it: final ATP concentration 15 μM, 10 min at 30° C.; read-out: protein kinase CK2 IC50. The assay is classed as biochemical. The protocol:
CK2 Kinase Assay was conducted using the protocol as described in Pierre F. et al; J. Med. Chem. 2011, 54, 635-654. The tested compounds in aqueous solution were added at a volume of 10 μL to a reaction mixture comprising 10 μL of assay dilution buffer (ADB; 20 mM MOPS, pH 7.2, 25 mM β-glycerol phosphate, 5 mM EGTA, 1 mM sodium orthovanadate, and 1 mM dithiothreitol), 10 μL of substrate peptide (RRRDDDSDDD, dissolved in ADB at a concentration of 1 mM), 10 μL of recombinant human CK2 (RRββ-holoenzyme, 25 ng dissolved in ADB; Millipore). Reactions were initiated by the addition of 10 μL of ATP solution (90% 75 mMMgCl2, 75 μM ATP (final ATP concentration: 15 μM) dissolved in ADB; 10% [γ-33P] ATP (stock 1mCi/100 L; 3000 Ci/mmol (Perkin-Elmer) and maintained for 10 min at 30° C. The reactions were quenched with 100 μL of 0.75% phosphoric acid and then transferred to and filtered through a phosphor cellulose filter plate (Millipore). After washing each well five times with 0.75% phosphoric acid, the plate was dried under vacuum for 5 min and, following the addition of 15 μL of scintillation fluid to each well, the residual radioactivity was measured using a Wallac luminescence counter. The IC50 values were derived from eight concentrations of test inhibitors.

Molecules are shown by their SMILES. pIC50: −log10 of the molar value.

By pIC50 is commonly meant the negative decadic logarithm of the IC50, by convention in mol/L. Regarding `O=C(O)c1nnn2c1nc(Nc1cccc(Cl)c1)c1ccncc12` [Compound 1, 5-((3-chlorophenyl)amino)pyrido[4,3-e][1,2,3]triazolo[1,5-a]pyrimidine-3-carboxylic acid], the negative-log IC50 (pIC50) was 5.85 with PC3 (prostate); 5.60 with HCT116 (colon); 5.24 in the assay on A375 (melanoma); 5.48 in the assay with H1299 (lung); 5.96 in the assay with MIAPaCa-2 (pancreas); 5.27 with HL60 (leukemia). The negative logarithm of the IC50 (pIC50) is 5.33 in the assay with MCF7 (breast), 5.38 in the assay on MDA-MB-231 (breast) and 7.62 in [1].

(Values after patent US12018026B1, “Pyrido[4,3-e][1,2,3]triazolo[1,5-a]pyrimidine as CK2 inhibitors” (KING FAISAL UNIVERSITY, priority 2024, dated 2024).)
